According to ChEMBL document CHEMBL3885861, “Open TG-GATES”:

Species: Rattus norvegicus
Assay: Open TG-GATES - Regimen: Single
Format: toxicity, organism-based, Sprague-Dawley
Parameters: regimen Single, gender Male, age 6 weeks
Settings: in vivo, ip, route intraperitoneal injection; for Bas / Eos / Ht / Lym / MCHC / MCV / Mono / Neu / PT / Plat / RBC / Ret / WBC / APTT / Fbg / Hb / MCH: tissue Blood; for KIDNEY_L / KIDNEY_R / KIDNEY_TOTAL: tissue Kidney; for LIVER: tissue Liver; for ALP / ALT / AST / BUN / CRE / DBIL / IP / K / LDH / PL / RALB / TBIL / TC / TG / TP / gamma-GTP / GLC / Ca / Na: tissue Plasma
[1] = 0 mg/kg, 3 h, dose 0 ug/Kg, dose level Control
[2] = 0 mg/kg, 6 h, dose 0 ug/Kg, dose level Control
[3] = 0 mg/kg, 9 h, dose 0 ug/Kg, dose level Control
[4] = 0 mg/kg, 24 h, dose 0 ug/Kg, dose level Control
[5] = 0.01 mg/kg, 3 h, dose 10 ug/Kg, dose level Low
[6] = 0.01 mg/kg, 6 h, dose 10 ug/Kg, dose level Low
[7] = 0.01 mg/kg, 9 h, dose 10 ug/Kg, dose level Low
[8] = 0.01 mg/kg, 24 h, dose 10 ug/Kg, dose level Low

LPS
TERMINAL_BW [1]: 194.6 g | Bas [1]: 0.3% | Eos [1]: 0.7% | Ht [1]: 40.7% | Lym [1]: 72% | MCHC [1]: 32.8% | MCV [1]: 63.3 fL | Mono [1]: 4% | Neu [1]: 21.3% | PT [1]: 15.7 s | Plat [1]: 123.5 x10_4/uL | RBC [1]: 644.3 x10_4/ul | Ret [1]: 9.4% | WBC [1]: 91.5 x10_2/uL | KIDNEY_L [1]: 0.9 g | KIDNEY_R [1]: 0.9 g | KIDNEY_TOTAL [1]: 1.8 g | LIVER [1]: 8.6 g | ALP [1]: 1094.7 IU/L | ALT [1]: 41.7 IU/L | AST [1]: 78.3 IU/L | BUN [1]: 8.7 mg/dL | CRE [1]: 0.2 mg/dL | DBIL [1]: 0.01 mg/dL | IP [1]: 9.2 mg/dL | K [1]: 4 meq/L | LDH [1]: 110 IU/L | PL [1]: 136.3 mg/dL | RALB [1]: 2.5 g/dL | TBIL [1]: 0.0467 mg/dL | TC [1]: 76 mg/dL | TG [1]: 41.3 mg/dL | TP [1]: 5.3 g/dL | gamma-GTP [1]: 1 IU/L | TERMINAL_BW [2]: 195.4 g | APTT [2]: 18.1 s | Bas [2]: 0% | Eos [2]: 0.3% | Fbg [2]: 298.7 mg/dL | Hb [2]: 12.9 g/dL | Ht [2]: 39.5% | Lym [2]: 71.3% | MCHC [2]: 32.6% | MCV [2]: 65.8 fL | Mono [2]: 2.3% | Neu [2]: 25% | PT [2]: 15.7 s | Plat [2]: 114.9 x10_4/uL | RBC [2]: 601.3 x10_4/ul | Ret [2]: 9.6% | WBC [2]: 101.7 x10_2/uL | KIDNEY_L [2]: 0.9 g | KIDNEY_R [2]: 0.9 g | KIDNEY_TOTAL [2]: 1.7 g | LIVER [2]: 7.9 g | ALP [2]: 1269.3 IU/L | ALT [2]: 37.7 IU/L | AST [2]: 75.7 IU/L | BUN [2]: 7.3 mg/dL | CRE [2]: 0.2 mg/dL | DBIL [2]: 0.01 mg/dL | GLC [2]: 178.3 mg/dL | IP [2]: 10 mg/dL | K [2]: 3.7 meq/L | LDH [2]: 74 IU/L | PL [2]: 138.7 mg/dL | RALB [2]: 2.5 g/dL | TBIL [2]: 0.0433 mg/dL | TC [2]: 79.3 mg/dL | TG [2]: 24.7 mg/dL | TP [2]: 5.4 g/dL | gamma-GTP [2]: 1 IU/L | TERMINAL_BW [3]: 191.3 g | APTT [3]: 17.1 s | Bas [3]: 0% | Eos [3]: 1% | Fbg [3]: 304.3 mg/dL | Ht [3]: 38.4% | Lym [3]: 63.3% | MCHC [3]: 32.8% | Mono [3]: 2% | Neu [3]: 33.7% | Plat [3]: 116.1 x10_4/uL | RBC [3]: 624 x10_4/ul | Ret [3]: 8.1% | WBC [3]: 71.4 x10_2/uL | KIDNEY_L [3]: 0.9 g | KIDNEY_R [3]: 0.9 g | KIDNEY_TOTAL [3]: 1.8 g | LIVER [3]: 7 g | ALP [3]: 1080.7 IU/L | ALT [3]: 48 IU/L | AST [3]: 79 IU/L | BUN [3]: 8.3 mg/dL | CRE [3]: 0.2 mg/dL | Ca [3]: 10 mg/dL | DBIL [3]: 0.0033 mg/dL | GLC [3]: 165 mg/dL | IP [3]: 9.5 mg/dL | K [3]: 3.8 meq/L | LDH [3]: 53.7 IU/L | PL [3]: 124.7 mg/dL | RALB [3]: 2.4 g/dL | TBIL [3]: 0.0467 mg/dL | TC [3]: 73.3 mg/dL | TG [3]: 13.3 mg/dL | TP [3]: 5.2 g/dL | gamma-GTP [3]: 1 IU/L | TERMINAL_BW [4]: 209.1 g | Bas [4]: 0.3% | Eos [4]: 1.3% | Fbg [4]: 302.3 mg/dL | Hb [4]: 12.9 g/dL | Ht [4]: 39.4% | Lym [4]: 76.3% | MCH [4]: 21 pg | MCHC [4]: 32.8% | MCV [4]: 64 fL | Mono [4]: 3.7% | Neu [4]: 17.3% | PT [4]: 15.2 s | Plat [4]: 115.4 x10_4/uL | RBC [4]: 616.3 x10_4/ul | Ret [4]: 8.6% | WBC [4]: 115.5 x10_2/uL | KIDNEY_L [4]: 0.9 g | KIDNEY_R [4]: 0.9 g | KIDNEY_TOTAL [4]: 1.8 g | LIVER [4]: 9.7 g | ALP [4]: 1572.7 IU/L | ALT [4]: 48.3 IU/L | AST [4]: 78 IU/L | BUN [4]: 15 mg/dL | CRE [4]: 0.2 mg/dL | DBIL [4]: 0.01 mg/dL | GLC [4]: 170.7 mg/dL | IP [4]: 8.6 mg/dL | K [4]: 4.4 meq/L | LDH [4]: 86.7 IU/L | PL [4]: 171.3 mg/dL | RALB [4]: 2.6 g/dL | TBIL [4]: 0.0533 mg/dL | TC [4]: 98.7 mg/dL | TG [4]: 55.3 mg/dL | TP [4]: 5.7 g/dL | gamma-GTP [4]: 1 IU/L | TERMINAL_BW [5]: 192 g | Bas [5]: 0% | Eos [5]: 0% | Fbg [5]: 249 mg/dL | Hb [5]: 12.9 g/dL | Lym [5]: 66% | MCH [5]: 21 pg | MCHC [5]: 32.9% | MCV [5]: 63.9 fL | Mono [5]: 2.3% | Neu [5]: 30.3% | PT [5]: 15.6 s | Plat [5]: 106.2 x10_4/uL | RBC [5]: 614.3 x10_4/ul | Ret [5]: 9.4% | WBC [5]: 59.5 x10_2/uL | KIDNEY_L [5]: 0.9 g | KIDNEY_R [5]: 0.9 g | KIDNEY_TOTAL [5]: 1.8 g | LIVER [5]: 8.5 g | ALP [5]: 1371 IU/L | ALT [5]: 39.3 IU/L | AST [5]: 80.7 IU/L | BUN [5]: 9.3 mg/dL | CRE [5]: 0.2 mg/dL | DBIL [5]: 0.0033 mg/dL | GLC [5]: 151.7 mg/dL | IP [5]: 9.1 mg/dL | K [5]: 3.9 meq/L | LDH [5]: 87.7 IU/L | PL [5]: 141.3 mg/dL | RALB [5]: 2.4 g/dL | TBIL [5]: 0.0433 mg/dL | TC [5]: 75.3 mg/dL | TG [5]: 50.7 mg/dL | TP [5]: 5.2 g/dL | gamma-GTP [5]: 0.7 IU/L | TERMINAL_BW [6]: 188.9 g | APTT [6]: 20.9 s | Bas [6]: 0% | Eos [6]: 1% | Fbg [6]: 308 mg/dL | Ht [6]: 40.2% | Lym [6]: 27% | MCH [6]: 21 pg | MCV [6]: 63.3 fL | Mono [6]: 1% | Neu [6]: 71% | Plat [6]: 84.5 x10_4/uL | RBC [6]: 634.3 x10_4/ul | Ret [6]: 7.8% | WBC [6]: 67.1 x10_2/uL | KIDNEY_L [6]: 0.9 g | KIDNEY_R [6]: 0.9 g | KIDNEY_TOTAL [6]: 1.7 g | LIVER [6]: 7.6 g | ALP [6]: 1287.3 IU/L | ALT [6]: 58.7 IU/L | AST [6]: 96.7 IU/L | BUN [6]: 8.3 mg/dL | CRE [6]: 0.2 mg/dL | Ca [6]: 9.9 mg/dL | DBIL [6]: 0.0167 mg/dL | GLC [6]: 150.7 mg/dL | IP [6]: 9.5 mg/dL | K [6]: 3.9 meq/L | LDH [6]: 75.3 IU/L | Na [6]: 139.7 meq/L | PL [6]: 154.3 mg/dL | RALB [6]: 2.5 g/dL | TBIL [6]: 0.0667 mg/dL | TC [6]: 91.7 mg/dL | TG [6]: 27.3 mg/dL | TP [6]: 5.4 g/dL | gamma-GTP [6]: 1.7 IU/L | TERMINAL_BW [7]: 187.9 g | APTT [7]: 16.6 s | Bas [7]: 0% | Eos [7]: 0% | Fbg [7]: 373 mg/dL | Ht [7]: 40.9% | Lym [7]: 58.3% | MCHC [7]: 33% | MCV [7]: 64.5 fL | Mono [7]: 2% | Neu [7]: 38.7% | PT [7]: 16 s | Plat [7]: 105.1 x10_4/uL | RBC [7]: 633.7 x10_4/ul | Ret [7]: 8.7% | WBC [7]: 86.6 x10_2/uL | KIDNEY_L [7]: 0.9 g | KIDNEY_R [7]: 0.8 g | KIDNEY_TOTAL [7]: 1.7 g | LIVER [7]: 7.1 g | ALP [7]: 1456.3 IU/L | ALT [7]: 37 IU/L | AST [7]: 77.3 IU/L | BUN [7]: 6.7 mg/dL | CRE [7]: 0.2 mg/dL | DBIL [7]: 0.0067 mg/dL | GLC [7]: 162.7 mg/dL | IP [7]: 9.8 mg/dL | K [7]: 3.6 meq/L | LDH [7]: 61 IU/L | Na [7]: 143.7 meq/L | PL [7]: 151 mg/dL | RALB [7]: 2.5 g/dL | TBIL [7]: 0.0567 mg/dL | TC [7]: 89 mg/dL | TG [7]: 21 mg/dL | TP [7]: 5.4 g/dL | gamma-GTP [7]: 1 IU/L | TERMINAL_BW [8]: 198.5 g | Bas [8]: 0% | Eos [8]: 1% | Fbg [8]: 435.3 mg/dL | Hb [8]: 13.6 g/dL | Lym [8]: 66.3% | MCH [8]: 21 pg | MCHC [8]: 32.7% | MCV [8]: 64.2 fL | Mono [8]: 2.3% | Neu [8]: 29% | PT [8]: 14.6 s | Plat [8]: 77.7 x10_4/uL | RBC [8]: 646.7 x10_4/ul | Ret [8]: 7.3% | WBC [8]: 85.5 x10_2/uL | KIDNEY_L [8]: 0.9 g | KIDNEY_R [8]: 0.9 g | KIDNEY_TOTAL [8]: 1.8 g | LIVER [8]: 9.1 g | ALP [8]: 2203 IU/L | ALT [8]: 39.3 IU/L | AST [8]: 71.7 IU/L | BUN [8]: 16.3 mg/dL | CRE [8]: 0.2 mg/dL | DBIL [8]: 0.01 mg/dL | GLC [8]: 189 mg/dL | IP [8]: 8.8 mg/dL | K [8]: 4.5 meq/L | LDH [8]: 77.3 IU/L | PL [8]: 168 mg/dL | RALB [8]: 2.6 g/dL | TBIL [8]: 0.0633 mg/dL | TC [8]: 94.7 mg/dL | TG [8]: 52.3 mg/dL | TP [8]: 5.6 g/dL | gamma-GTP [8]: 1 IU/L | TERMINAL_BW (0.3 mg/kg, 3 h, dose 300 ug/Kg, dose level Middle): 194.5 g
